Laboratory results taken from ChEMBL document CHEMBL1141815, “KR025, a new cytotoxic compound from Myxococcus fulvus” (J Nat Prod, 1999).
Converted amounts (≈) assume the structure as drawn.

Experiments:
Assay type in all cases: functional, cell-based
XF498 = experiment: Cytotoxicity against human XF498 cells after 72 hrs by SRB assay; settings: XF498, 72 h
SK-OV-3 = experiment: Cytotoxicity against human SKOV3 cells after 72 hrs by SRB assay; settings: SK-OV-3, 72 h
SK-MEL-2 = experiment: Cytotoxicity against human SK-MEL-2 cells after 72 hrs by SRB assay; settings: SK-MEL-2, 72 h
HCT-15 = experiment: Cytotoxicity against human HCT-15 cells after 72 hrs by SRB assay; settings: HCT-15, 72 h
A549 = experiment: Cytotoxicity against human A549 cells after 72 hrs by SRB assay; settings: A549, 72 h

## CCCCCC[C@H]1C(=O)O[C@H](C)[C@H](NC(=O)c2cccc(NC=O)c2O)C(=O)O[C@@H](C)[C@@H]1OC(=O)CC(C)C [ANTIMYCIN A]
XF498
  IC50: 390 ng/mL (≈ 711 nM)
SK-OV-3
  IC50: 5500 ng/mL (≈ 10000 nM)
SK-MEL-2
  IC50: 270 ng/mL (≈ 492 nM)
HCT-15
  IC50: 410 ng/mL (≈ 747 nM)
A549
  IC50: 480 ng/mL (≈ 875 nM)

## COC(=O)/C=C(/OC)[C@H](C)[C@H](/C=C/c1csc(-c2cnc([C@@H](C)/C=C/C=C/C(C)C)s2)n1)OC
XF498
  IC50: 0.03 ng/mL (≈ 0.0597 nM)
SK-OV-3
  IC50: 0.04 ng/mL (≈ 0.0796 nM)
SK-MEL-2
  IC50: 8.5 ng/mL (≈ 16.9 nM)
HCT-15
  IC50: 0.06 ng/mL (≈ 0.119 nM)
A549
  IC50: 0.02 ng/mL (≈ 0.0398 nM)

## CO/C(=C/C(N)=O)[C@H](C)[C@H](/C=C/c1csc(-c2csc([C@@H](C)/C=C/C=C/C(C)C)n2)n1)OC [MYXOTHIAZOL]
XF498
  IC50: 0.03 ng/mL (≈ 0.0615 nM)
SK-OV-3
  IC50: 0.01 ng/mL (≈ 0.0205 nM)
SK-MEL-2
  IC50: 9.7 ng/mL (≈ 19.9 nM)
HCT-15
  IC50: 0.03 ng/mL (≈ 0.0615 nM)
A549
  IC50: 0.01 ng/mL (≈ 0.0205 nM)
